# From PubChem BioAssay (NCI)
#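 GI50 is the concentration that inhibits growth by half. At the TGI there is no net growth.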
# Experiments:
# Assay in all cases: DTP human tumour cell line panel, 384-well format
# [1] = tested on: 786-0 renal
# [2] = tested on: A498 renal
# [3] = tested on: A549 NSCLC
# [4] = tested on: ACHN renal
# [5] = tested on: BT-549 breast
# [6] = tested on: CAKI-1 renal
# [7] = tested on: CCRF-CEM leukemia
# [8] = tested on: COLO 205 colon
# [9] = tested on: DU-145 prostate
# [10] = tested on: EKVX NSCLC
# [11] = tested on: HCC-2998 colon
# [12] = tested on: HCT-116 colon
# [13] = tested on: HCT-15 colon
# [14] = tested on: HL-60(TB) leukemia
# [15] = tested on: HOP-62 NSCLC
# [16] = tested on: HOP-92 NSCLC
# [17] = tested on: HS 578T breast
# [18] = tested on: HT29 colon
# [19] = tested on: IGROV1 ovarian
# [20] = tested on: K-562 leukemia
# [21] = tested on: KM12 colon
# [22] = tested on: LOX IMVI melanoma
# [23] = tested on: M14 melanoma
# [24] = tested on: MALME-3M melanoma
# [25] = tested on: MCF7 breast
# [26] = tested on: MDA-MB-231 breast
# [27] = tested on: MDA-MB-435 melanoma
# [28] = tested on: MDA-MB-468 breast
# [29] = tested on: MOLT-4 leukemia
# [30] = tested on: NCI-H226 lung
# [31] = tested on: NCI-H23 lung
# [32] = tested on: NCI-H322M lung
# [33] = tested on: NCI-H460 NSCLC
# [34] = tested on: NCI-H522 lung
# [35] = tested on: NCI/ADR-RES ovarian
# [36] = tested on: OVCAR-3 ovarian
# [37] = tested on: OVCAR-4 ovarian
# [38] = tested on: OVCAR-5 ovarian
# [39] = tested on: OVCAR-8 ovarian
# [40] = tested on: PC-3 prostate
# [41] = tested on: RPMI-8226 leukemia
# [42] = tested on: RXF 393 renal
# [43] = tested on: SF-268 CNS
# [44] = tested on: SF-295 CNS
# [45] = tested on: SF-539 CNS
# [46] = tested on: SK-MEL-2 melanoma
# [47] = tested on: SK-MEL-28 melanoma
# [48] = tested on: SK-MEL-5 melanoma
# [49] = tested on: SK-OV-3 ovarian
# [50] = tested on: SN12C renal
# [51] = tested on: SNB-19 CNS
# [52] = tested on: SNB-75 CNS
# [53] = tested on: SW-620 colon
# [54] = tested on: T-47D breast
# [55] = tested on: TK-10 renal
# [56] = tested on: U251 glioblastoma
# [57] = tested on: UACC-257 melanoma
# [58] = tested on: UACC-62 melanoma
# [59] = tested on: UO-31 renal
smiles,measurement,setting,value
C[C@@H]1Cc2c([nH]c3ccccc23)[C@@H](c2c(F)cc(/C=C/C(=O)O)cc2F)N1CC(C)(C)F,GI50,[1],14.1 µM
same,TGI,[1],27.7 µM
same,GI50,[2],13.7 µM
same,TGI,[2],32.4 µM
same,GI50,[3],11.6 µM
same,TGI,[3],24.5 µM
same,GI50,[4],17.7 µM
same,TGI,[4],35.2 µM
same,GI50,[5],15.6 µM
same,TGI,[5],29.2 µM
same,GI50,[6],17.1 µM
same,TGI,[6],32.7 µM
same,GI50,[7],13 µM
same,TGI,[7],25.8 µM
same,GI50,[8],17.7 µM
same,TGI,[8],39.3 µM
same,GI50,[9],15.9 µM
same,TGI,[9],35.5 µM
same,GI50,[10],15.6 µM
same,TGI,[10],31.4 µM
same,GI50,[11],15.3 µM
same,TGI,[11],28.7 µM
same,GI50,[12],14.7 µM
same,TGI,[12],28.3 µM
same,GI50,[13],14.3 µM
same,TGI,[13],27.8 µM
same,GI50,[14],17 µM
same,TGI,[14],30.8 µM
same,GI50,[15],10.2 µM
same,TGI,[15],22.1 µM
same,GI50,[16],14.5 µM
same,TGI,[16],28 µM
same,GI50,[17],14 µM
same,TGI,[17],27 µM
same,GI50,[18],15.2 µM
same,TGI,[18],28.8 µM
same,GI50,[19],16.4 µM
same,TGI,[19],31.4 µM
same,GI50,[20],15.4 µM
same,TGI,[20],29.3 µM
same,GI50,[21],16.5 µM
same,TGI,[21],30.5 µM
same,GI50,[22],17.2 µM
same,TGI,[22],31.2 µM
same,GI50,[23],15.7 µM
same,TGI,[23],29.3 µM
same,GI50,[24],14.5 µM
same,TGI,[24],27.9 µM
same,TGI,[25],18.9 µM
same,GI50,[26],17.5 µM
same,TGI,[26],31.6 µM
same,GI50,[27],18.4 µM
same,TGI,[27],32.9 µM
same,GI50,[28],20.4 µM
same,TGI,[28],40.2 µM
same,GI50,[29],11.8 µM
same,TGI,[29],24.1 µM
same,GI50,[30],17.4 µM
same,TGI,[30],32.6 µM
same,GI50,[31],15.4 µM
same,TGI,[31],29 µM
same,GI50,[32],17.9 µM
same,TGI,[32],38.1 µM
same,GI50,[33],15.3 µM
same,TGI,[33],29 µM
same,GI50,[34],16.8 µM
same,TGI,[34],30.8 µM
same,GI50,[35],16.8 µM
same,TGI,[35],32 µM
same,GI50,[36],13.3 µM
same,TGI,[36],26.2 µM
same,GI50,[37],12.8 µM
same,TGI,[37],33.5 µM
same,GI50,[38],19.2 µM
same,TGI,[38],34.3 µM
same,GI50,[39],14.9 µM
same,TGI,[39],28.6 µM
same,GI50,[40],13.4 µM
same,TGI,[40],26.6 µM
same,GI50,[41],11.4 µM
same,TGI,[41],23.6 µM
same,GI50,[42],18.5 µM
same,TGI,[42],32.6 µM
same,GI50,[43],16.3 µM
same,TGI,[43],30.9 µM
same,GI50,[44],16.4 µM
same,TGI,[44],30.5 µM
same,GI50,[45],15 µM
same,TGI,[45],28.4 µM
same,GI50,[46],19.7 µM
same,TGI,[46],34.2 µM
same,GI50,[47],17.4 µM
same,TGI,[47],31.4 µM
same,GI50,[48],13.9 µM
same,TGI,[48],27.2 µM
same,GI50,[49],19.4 µM
same,TGI,[49],39.2 µM
same,GI50,[50],17.3 µM
same,TGI,[50],32.3 µM
same,GI50,[51],15.5 µM
same,TGI,[51],32.2 µM
same,GI50,[52],17.5 µM
same,TGI,[52],33.1 µM
same,GI50,[53],16 µM
same,TGI,[53],29.7 µM
same,GI50,[54],10.7 µM
same,TGI,[54],32.5 µM
same,GI50,[55],17.7 µM
same,TGI,[55],35.2 µM
same,GI50,[56],11.9 µM
same,TGI,[56],24.4 µM
same,GI50,[57],17.9 µM
same,TGI,[57],33.4 µM
same,GI50,[58],15.7 µM
same,TGI,[58],29.4 µM
same,GI50,[59],13.9 µM
same,TGI,[59],27.1 µM
O=C(O)CCCc1ccc(N(CCCl)CCCl)cc1,GI50,[1],24.3 µM
same,GI50,[3],33.3 µM
same,GI50,[4],8.31 µM
same,TGI,[4],35 µM
same,GI50,[5],14.1 µM
same,GI50,[6],8.78 µM
same,GI50,[7],3.29 µM
same,TGI,[7],8.55 µM
same,GI50,[9],27.3 µM
same,TGI,[9],99.4 µM
same,GI50,[12],28.4 µM
same,GI50,[13],23.7 µM
same,GI50,[14],1.64 µM
same,TGI,[14],3.75 µM
same,GI50,[15],13.6 µM
same,TGI,[15],45.8 µM
same,GI50,[16],25.3 µM
same,GI50,[18],51.9 µM
same,GI50,[20],41.6 µM
same,GI50,[22],30.4 µM
same,GI50,[23],19.5 µM
same,GI50,[24],29.9 µM
same,GI50,[25],41 µM
same,GI50,[26],84.7 µM
same,GI50,[28],4.37 µM
same,TGI,[28],21.4 µM
same,GI50,[29],1.26 µM
same,TGI,[29],2.52 µM
same,GI50,[31],19.4 µM
same,TGI,[31],99.8 µM
same,GI50,[34],13.3 µM
same,TGI,[34],27.5 µM
same,GI50,[35],19.9 µM
same,GI50,[36],28.4 µM
same,GI50,[38],45.7 µM
same,GI50,[39],14.2 µM
same,GI50,[41],6.45 µM
same,TGI,[41],23.6 µM
same,GI50,[42],14.7 µM
same,TGI,[42],29.8 µM
same,GI50,[43],9.3 µM
same,GI50,[44],18.3 µM
same,TGI,[44],41.8 µM
same,GI50,[45],16.7 µM
same,TGI,[45],60 µM
same,GI50,[47],57 µM
same,GI50,[49],41.1 µM
same,GI50,[50],10.4 µM
same,GI50,[51],35.3 µM
same,GI50,[52],19.8 µM
same,GI50,[53],16.9 µM
same,GI50,[54],36 µM
same,GI50,[56],11.6 µM
same,GI50,[58],12 µM
same,GI50,[59],39.8 µM
